From US20230190760A1, “ADVANTAGEOUS THERAPIES FOR DISORDERS MEDIATED BY IKAROS OR AIOLOS” (C4 Therapeutics, Inc., priority 2020, published 2023)

What was measured:
HH = test: Anti-proliferative activity, 96 hours; settings: Homo sapiens
SU-DHL-1 = test: Anti-proliferative activity, 96 hours; settings: Homo sapiens, SU-DHL-1, 96 h
Maver-1 = test: Anti-proliferative activity, 96 hours; settings: Homo sapiens, Maver1, 96 h
DOHH-2 = test: Anti-proliferative activity, 96 hours; settings: Homo sapiens, DOHH-2, 96 h
[1] = system: REC1 mantle cell lymphoma tumors; test: REC1 mantle cell lymphoma xenograft, balb/c nude mice; type: in vivo; settings: Compound 1 10, 30, or 100 μg/kg; pomalidomide 3000 μg/kg; 18 days
Procedure: A xenograft study was conducted in female balb/c nude mice bearing REC1 mantle cell lymphoma tumors.
(§1) Statistical analysis was performed using two-way analysis of variance (ANOVA). Data are expressed as MTV±SEM.

SU-DHL-5 = test: Anti-proliferative activity, 96 hours; settings: Homo sapiens, SU-DHL-5, 96 h
SU-DHL-2 = test: Anti-proliferative activity, 96 hours; settings: Homo sapiens, SU-DHL-2, 96 h
[2] = system: Caspase 3/7 activity in TMD8 cells; test: Apoptosis induction, Caspase 3/7 activity in TMD8 cells; settings: Homo sapiens, TMD8, 48 h, read-out: EC50, caspase 3/7 activity
Procedure: 30 μL TMD8 cells were seeded into the 384-well plates in RPMI medium containing 10% FBS at a cell density of 2000 cells per well. Cells treated in the absence of the test compound were the negative control. Following compound treatment, cells were incubated at 37° C. with 5% CO2 for 48 hr. 30 μL reconstituted Caspase 3/7 Assay detection reagent was added to each well and luminescence was acquired on EnVision™ Multilabel Reader (PerkinElmer, Santa Clara, Calif., USA).

LP-1 = test: Anti-proliferative activity, 96 hours; settings: Homo sapiens, LP-1, 96 h
RPMI-8226 tumors = test: RPMI-8226 xenograft, crossover from pomalidomide to Compound 1; type: in vivo, mice; settings: 3000 μg/kg/day for 17 days
Procedure: Vehicle treated animals were treated for 28 days until tumors reached a MTV of 2211 mm^3. […] Data are expressed as MTV±SEM.
Tumor growth was monitored throughout the study. […] Measurements were twice weekly. The health of the mice was monitored, and noteworthy clinical observations were recorded. Acceptable toxicity was defined as a group's mean BW loss of less than 20% during the study and not more than one treatment related death among ten treated animals, or 10%.
Animals were weighed on a twice weekly schedule.

TMD8 DLBCL tumors = test: TMD8 DLBCL xenograft, NOD SCID mice; type: in vivo; settings: Compound 1 100 μg/kg; pomalidomide 3000 μg/kg; 18 days
Procedure: A xenograft study was also conducted in female NOD SCID mice bearing TMD8 DLBCL tumors.
as §1

MM.1S = test: Anti-proliferative activity, 96 hours; settings: Homo sapiens, MM1.S
KMM-1 = test: Anti-proliferative activity, 96 hours; settings: KMM-1, 96 h
MM.1R = test: Anti-proliferative activity, 96 hours
Jeko-1 = test: Anti-proliferative activity, 96 hours; settings: Homo sapiens, JeKo-1, 96 h
KIJK = test: Anti-proliferative activity, 96 hours
KMS-26 = test: Anti-proliferative activity, 96 hours; settings: KMS-26, 96 h
NCIH929 cells = test: NCI-H929 viability assay (CellTiter-Glo); settings: 96 hours
Procedure: NCIH929 cell viability was determined based on quantification of ATP using CellTiter-Glo®2.0 luminescent Assay kit, which signals the presence of metabolically-active cells. Briefly, test compound was added to 384-well plates at a top concentration of 1 μM with 10 points, half log titration in duplicates. NCIH929 cells were seeded into the 384-well plates in RPMI medium containing 10% FBS and 0.05 mM 2-mercaptoethanol at a cell density of 750 cells per well. Cells treated in the absence of the test compound were the negative control and cells treated in the absence of CellTiter-Glo® 2.0 were the positive control. Cells treated with the test compounds were incubated at 37° C. with 5% CO2 for 96 hr. CellTiter-Glo reagent was then added to the cells and Luminescence was acquired on EnVision™ Multilabel Reader (PerkinElmer, Santa Clara, Calif., USA). % Viability was determined by normalizing the signal with positive and DMSO treated negative controls on the same microtiter plate. […] Curve fit and IC502 determination was performed by 4 parametric regression analysis.

Pfeiffer = test: Anti-proliferative activity, 96 hours; settings: Homo sapiens
KARPASS422 = test: Anti-proliferative activity, 96 hours
Rec-1 = test: Anti-proliferative activity, 96 hours; settings: Homo sapiens, Rec1, 96 h
WSU-DLCL2 = test: Anti-proliferative activity, 96 hours; settings: Homo sapiens, WSUDLCL2, 96 h
[3] = system: Caspase 3/7 activity in NCIH929 multiple myeloma cells; test: Apoptosis induction, Caspase 3/7 activity in NCIH929 cells; type: cell-based; settings: Homo sapiens, NCI-H929, 72 h, read-out: EC50, caspase 3/7 activity
Procedure: 30 μL NCIH929 cells were seeded into the 384-well plates in RPMI medium containing 10% FBS and 0.05 mM 2-mercaptoethanol at a cell density of 1000 cells per well. Cells treated in the absence of the test compound were the negative control. Following compound treatment, cells were incubated at 37° C. with 5% CO2 for 72 hr. 30 μL reconstituted Caspase 3/7 Assay detection reagent was added to each well and luminescence was acquired on EnVision™ Multilabel Reader (PerkinElmer, Santa Clara, Calif., USA).

H929 = test: Anti-proliferative activity, 96 hours; settings: Homo sapiens, NCI-H929, 96 h
HuT 102 = test: Anti-proliferative activity, 96 hours; settings: HuT-102, 96 h
[4] = system: NCI-H929 multiple myeloma tumors; test: NCI-H929 multiple myeloma xenograft, NOD SCID mice (Example 13); type: in vivo; settings: 3000 μg/kg PO QD
Procedure: Compound 1 efficacy in two multiple myeloma cell lines (NC-H929) and (RPMI-8226) was evaluated at four different doses: 3 μg/kg, 10 μg/kg, 30 μg/kg, and 100 μg/kg. Compound 1 was administered QD (every day) orally (PO). […]
For the NCI-H929 cells, the xenograft study was conducted in female NOD SCID mice bearing NCI-H929 multiple myeloma tumors.
as §1

SR = test: Anti-proliferative activity, 96 hours; settings: Homo sapiens
[5] = system: IMiD-resistant NCIH929 cells; test: Growth of IMiD-resistant NCIH929 cells (CellTiter-Glo); settings: at concentrations up to 10 μM
Procedure: Briefly, test compound was added to 384-well plates at a top concentration of 10 μM with 14 points, half log titration in duplicates. NCIH929 cells were seeded into the 384-well plates in RPMI medium containing 10% FBS and 0.05 mM 2-mercaptoethanol at a cell density of 750 cells per well. Cells treated in the absence of the test compound were the negative control and cells treated in the absence of CellTiter-Glo® 2.0 were the positive control. Cells treated with the test compounds were incubated at 37° C. with 5% CO2 for 96 hr. CellTiter-Glo reagent was then added to the cells and luminescence was acquired on EnVision™ Multilabel Reader (PerkinElmer, Santa Clara, Calif., USA). % Viability was determined by normalizing the signal with positive and DMSO treated negative controls on the same microtiter plate.

RL = test: Anti-proliferative activity, 96 hours; settings: Homo sapiens
TMD8 = test: Anti-proliferative activity, 96 hours; settings: Homo sapiens, TMD8, 96 h
OPM-2 = test: Anti-proliferative activity, 96 hours; settings: Homo sapiens, OPM-2, 96 h
Farage = test: Anti-proliferative activity, 96 hours
OCI-LY10 = test: Anti-proliferative activity, 96 hours; settings: Homo sapiens, OCI-Ly10, 96 h
IKZF1 = IKZF1 (Homo sapiens, UniProt Q13422+Q96SW2)
Sequence of IKZF1 (Q13422 whole entry): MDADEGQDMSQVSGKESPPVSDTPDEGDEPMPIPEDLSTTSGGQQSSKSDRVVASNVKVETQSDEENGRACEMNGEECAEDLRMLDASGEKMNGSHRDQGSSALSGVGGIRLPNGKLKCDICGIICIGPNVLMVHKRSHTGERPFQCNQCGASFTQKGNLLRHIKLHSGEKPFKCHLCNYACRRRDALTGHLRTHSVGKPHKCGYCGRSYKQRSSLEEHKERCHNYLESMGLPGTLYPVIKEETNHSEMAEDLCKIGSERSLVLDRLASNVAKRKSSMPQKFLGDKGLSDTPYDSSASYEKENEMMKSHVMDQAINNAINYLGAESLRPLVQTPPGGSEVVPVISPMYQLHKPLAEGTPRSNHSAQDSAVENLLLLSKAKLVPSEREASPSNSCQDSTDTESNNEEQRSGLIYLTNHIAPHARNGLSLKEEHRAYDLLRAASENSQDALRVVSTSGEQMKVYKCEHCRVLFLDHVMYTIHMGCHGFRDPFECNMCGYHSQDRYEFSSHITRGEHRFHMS
Sequence of IKZF1 (Q96SW2 whole entry): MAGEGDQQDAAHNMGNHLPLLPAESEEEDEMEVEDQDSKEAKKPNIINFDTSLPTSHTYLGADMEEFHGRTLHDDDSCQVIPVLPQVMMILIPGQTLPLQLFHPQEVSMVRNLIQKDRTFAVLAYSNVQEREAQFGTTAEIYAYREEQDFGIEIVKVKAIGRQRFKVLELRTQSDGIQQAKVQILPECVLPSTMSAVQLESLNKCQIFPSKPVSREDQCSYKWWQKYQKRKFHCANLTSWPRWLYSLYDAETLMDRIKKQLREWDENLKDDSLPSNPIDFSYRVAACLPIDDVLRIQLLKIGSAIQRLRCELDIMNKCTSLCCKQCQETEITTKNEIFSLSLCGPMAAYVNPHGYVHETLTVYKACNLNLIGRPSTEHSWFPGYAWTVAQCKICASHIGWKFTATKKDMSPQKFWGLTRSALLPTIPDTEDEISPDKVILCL
Sequence of IKZF1 (Q16531 2-1140 partner limits assumed): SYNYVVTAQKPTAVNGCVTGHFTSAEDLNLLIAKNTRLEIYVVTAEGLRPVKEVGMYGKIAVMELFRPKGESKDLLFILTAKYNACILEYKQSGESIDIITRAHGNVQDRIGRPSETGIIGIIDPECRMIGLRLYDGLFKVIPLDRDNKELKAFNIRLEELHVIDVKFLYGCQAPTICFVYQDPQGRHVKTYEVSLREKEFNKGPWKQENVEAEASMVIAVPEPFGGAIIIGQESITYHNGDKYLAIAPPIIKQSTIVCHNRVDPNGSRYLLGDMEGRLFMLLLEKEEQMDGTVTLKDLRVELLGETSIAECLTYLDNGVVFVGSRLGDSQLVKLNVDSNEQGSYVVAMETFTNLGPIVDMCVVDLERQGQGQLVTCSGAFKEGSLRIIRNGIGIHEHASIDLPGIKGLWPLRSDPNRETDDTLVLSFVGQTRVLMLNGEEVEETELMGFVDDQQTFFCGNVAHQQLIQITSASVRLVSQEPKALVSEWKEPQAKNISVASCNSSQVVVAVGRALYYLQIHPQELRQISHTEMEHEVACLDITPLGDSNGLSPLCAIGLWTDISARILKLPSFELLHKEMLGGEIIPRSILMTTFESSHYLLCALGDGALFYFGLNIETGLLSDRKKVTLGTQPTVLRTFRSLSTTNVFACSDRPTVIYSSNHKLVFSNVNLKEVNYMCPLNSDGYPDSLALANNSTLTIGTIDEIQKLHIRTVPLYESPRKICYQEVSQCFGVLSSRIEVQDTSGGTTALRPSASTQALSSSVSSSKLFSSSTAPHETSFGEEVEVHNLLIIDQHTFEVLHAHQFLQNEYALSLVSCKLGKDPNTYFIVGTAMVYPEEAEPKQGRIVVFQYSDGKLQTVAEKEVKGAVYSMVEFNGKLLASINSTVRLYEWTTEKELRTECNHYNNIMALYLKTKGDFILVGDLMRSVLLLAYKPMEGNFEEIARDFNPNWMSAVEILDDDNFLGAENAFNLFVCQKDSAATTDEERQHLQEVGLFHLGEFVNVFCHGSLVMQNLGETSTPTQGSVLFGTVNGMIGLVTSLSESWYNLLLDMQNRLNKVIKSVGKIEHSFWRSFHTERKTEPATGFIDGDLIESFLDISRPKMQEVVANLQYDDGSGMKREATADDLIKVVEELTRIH
Procedure: Endogenous expression of IKZF1 in NCIH929 cells was determined by addition of N-terminal HiBiT tag to the NCIH929 cell line using CRISPR-Cas9. Briefly, test compound was added to 384-well plates at a top concentration of 1 μM with 10 points, half log titration in duplicates. NCIH929 cells expressing HiBiT-tagged IKZF1 were seeded into the 384-well plates in RPMI medium containing 10% FBS and 0.05 mM 2-mercaptoethanol at a cell density of 15000 cells per well. Cells treated in the absence of the test compound were the negative control and wells containing media only were the positive control. Following compound treatment, cells were incubated at 37° C. with 5% CO2 for 1.5 hr. HiBiT signal was determined using Nano-Glo™ HiBiT Lytic Assay System (Promega, N3050) and luminescence was acquired on EnVision™ Multilabel Reader (PerkinElmer, Santa Clara, Calif., USA). % IKZF1 remaining was determined by normalizing the signal with positive and negative controls on the same microtiter plate. […] Curve fit and IC50 determination was performed by 4 parametric regression analysis.
NCIH929 cells expressing HiBiT-tagged IKZF1 were seeded into the 384-well plates in RPMI medium containing 10% FBS and 0.05 mM 2-mercaptoethanol at a cell density of 15000 cells per well. Cells treated in the absence of the test compound were the negative control and wells containing media only were the positive control. Following compound treatment, cells were incubated at 37° C. with 5% CO2 for 1 or 2 hr. HiBiT signal was determined using Nano-Glo™ HiBiT Lytic Assay System (Promega, N3050) and luminescence was acquired on EnVision™ Multilabel Reader (PerkinElmer, Santa Clara, Calif., USA). % IKZF1 remaining was determined by normalizing the signal with positive and negative controls on the same microtiter plate. Curve fit and IC50 determination was performed by 4 parametric regression analysis.

DL40 = test: Anti-proliferative activity, 96 hours
Mino = test: Anti-proliferative activity, 96 hours; settings: Homo sapiens
RPMI 8226 = test: Anti-proliferative activity, 96 hours; settings: Homo sapiens, RPMI-8226, 96 h

## Nc1cccc2c1C(=O)N(C1CCC(=O)NC1=O)C2=O (stereo not drawn) [Pomalidomide, reference compound]
HH
  IC50: > 10 µM
SU-DHL-1
  IC50: 0.378 µM
Maver-1
  IC50: > 10 µM
DOHH-2
  IC50: 1.15 µM
[1]
  tumor volume: increased
SU-DHL-5
  IC50: > 10 µM
SU-DHL-2
  IC50: > 10 µM
[2]
  EC50: 1.2 µM
LP-1
  IC50: 0.576 µM
RPMI-8226 tumors
  tumor response: no response
TMD8 DLBCL tumors
  tumor volume: increased
MM.1S
  IC50: 0.071 µM
KMM-1
  IC50: 0.527 µM
MM.1R
  IC50: 0.193 µM
Jeko-1
  IC50: > 10 µM
KIJK
  IC50: 4.33 µM
KMS-26
  IC50: 2.09 µM
NCIH929 cells; % viability
  Mean Emax (%) ± SD, H929 Viability: 15.6 ± 4.2%
NCIH929 cells; read-out: Mean IC50 (nM), H929 Viability
  IC50: 141 nM
Pfeiffer
  IC50: > 10 µM
KARPASS422
  IC50: 0.0244 µM
Rec-1
  IC50: 0.0448 µM
WSU-DLCL2
  IC50: > 10 µM
[3]
  EC50: 0.407 µM
H929
  IC50: 0.171 µM
HuT 102
  IC50: > 10 µM
[4]
  Statistical Significance Compared to Vehicle: 0.718
SR
  IC50: > 10 µM
[5]
  growth inhibition: less than 50%
RL
  IC50: > 10 µM
TMD8
  IC50: 0.327 µM
OPM-2
  IC50: 0.0933 µM
Farage
  IC50: > 10 µM
OCI-LY10
  IC50: 0.0477 µM
IKZF1; NCI-H929, read-out: Mean Emax (%) ± SD, IKZF1 Degradation
  Emax: 55.7 ± 6%
IKZF1; after 1 hour treatment
  IKZF1 degradation: less than 25%
DL40
  IC50: > 10 µM
Mino
  IC50: 0.426 µM
RPMI 8226
  IC50: > 10 µM
